Here are results for eleven compounds from patent US8188312B2, “Acyclic sulfamide derivatives” (Fundacion Imabis. Instituto Mediterraneo para el Avance de …, priority 2006, dated 2012).

Entries after “also recorded” stand apart in the source; their conditions may differ.

In one data set the target is T1, human PPARα (Homo sapiens, UniProt Q07869).
T1 construct: expressed in transfected cells; host or cells: MCF-7 human breast cancer cells, transiently transfected (DOTAP)
T1 sequence (Q07869 1-468): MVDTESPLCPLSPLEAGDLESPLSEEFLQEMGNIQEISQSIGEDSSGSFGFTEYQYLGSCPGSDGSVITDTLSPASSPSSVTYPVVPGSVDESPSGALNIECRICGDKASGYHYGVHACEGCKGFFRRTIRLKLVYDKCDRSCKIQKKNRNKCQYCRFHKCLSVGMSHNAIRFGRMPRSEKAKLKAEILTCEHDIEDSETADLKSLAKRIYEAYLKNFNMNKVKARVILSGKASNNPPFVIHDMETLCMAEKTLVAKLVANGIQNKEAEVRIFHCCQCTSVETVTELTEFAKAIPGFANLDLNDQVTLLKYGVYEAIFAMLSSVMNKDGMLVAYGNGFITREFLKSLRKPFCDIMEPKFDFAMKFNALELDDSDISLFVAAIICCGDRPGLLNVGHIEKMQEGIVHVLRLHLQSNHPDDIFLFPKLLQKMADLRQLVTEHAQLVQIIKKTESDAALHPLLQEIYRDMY
Briefly: Luciferase reporter gene assay (RGA) in transfected MCF-7 cells. In kind it is cell-based. Particulars: for induction of the basal level of PPARα on the PPRE (relative luciferase activity): endogenous coregulator levels, 10 μM WY14643, 1 μM OEA and analogs; for induction of the basal level of PPARα on the PPRE (relative luciferase activity) / induction of luciferase activity with overexpression of TIF2: MCF-7 cells, 16 h; for induction of luciferase activity with overexpression of TIF2: TIF2 cotransfected, 1 μM; for activation of PPARα (receptor-mediated transcription): summary statement. On the procedure: FIG. 2: Agonistic action of OEA and analogs. Luciferase reporter gene assays were performed with extracts from MCF-7 cells that were transiently transfected with a luciferase reporter construct containing three copies of the human ACO of PPRE. (A) Wild type human PPARα expression vector was also cotransfected as indicated. Cells were treated for 16 h with solvent (DMSO), and different concentrations (*10^−8, *10^−7, **10^−6 and **10^−5 M) of OEA, compound 2, or *10^−7, **10^−6 and **10^−5 M of anandamide (AEA, used as a negative control), 7 (*10^−8, *10^−7, **10^−6 and **10^−5 M) and 12 (*10^−7, **10^−6 and **10^−5 M). (*p<0.05, (**) p<0.01 vs vehicle, #p<0.01 vs vehicle and without ACO) (B) Wild type human PPARα expression as well as plasmids coding full length TIF2 were also cotransfected as indicated. Cells were treated for 16 h with solvent (DMSO), 10 μM WY14643, 1 μM OEA and its analogs 2, 7 and 12. Relative luciferase activities were measured in reference to solvent-induced cells not overexpressing any protein. Columns represent the mean of at least three experiments and bars indicate SD. (*p<0.01 vs vehicle, #p<0.01 vs vehicle and without TIF2).
Breast cancer human cells MCF-7 were seeded in a 6-well culture plate (10^5 cells/mL) and cultured in a Dulbecco modified Eagle medium (DMEM) free from phenol red, supplied with 5% of fetal bovine serum (FBS) treated with carbon (Macias-Gonzalez, M et al. Mol. End. 17 (2003): 2028).
The liposomes with DNA plasmids were obtained by incubation of 1 μg of the reporter plasmid with luciferase and the wild type human PPAR-α expression vector with 10 μg of N-1-(2,3-dioleyloxi)-propyl-N,N,N-trimethylammonium (DOTAP from Roche Diagnostics) for 15 minutes at room temperature in a total volume of 100 μL. After the dilution with 900 μL of DMEM free from phenol red, the liposomes were added to the cells. 4-5 h after the transfection of the cells, the DMEM free from phenol red supplemented with 500 μL of FBS treated with carbon at 15% was added, in this case with the PPAR-α ligands (OEA, AEA and sulfamides derivatives) or control solvents (DMSO) at different concentrations of 10^−8, 10^−7, 10^−6 and 10^−5 M.
The cells were lysed 16 hours after the beginning of the stimulation with the reporter gene lysis buffer (Roche Diagnostics) and the reporter gene assay or RGA luciferase of constant luminous signal was carried out following the manufactures recommendations (Roche Diagnostics). The luciferase activities were standardized with regard to the protein concentration and the induction factors were calculated as the ratio of luciferase activity of ligand stimulated cells in relation to the solvent controls (Vaisanen, S. et al. Mol. Pharmacol. 62 (2002):788).
A general note: Reporter assays use an easily measured gene product as a stand-in for the process of interest.

Data set [1] is described as follows: Food intake study: acute treatment in food-deprived rats. Particulars: i.p., rats food-deprived 24 h; 30, 60, 120 and 240 min. In kind it is in vivo, male Wistar rats. On the procedure: FIG. 3: Activity of OEA analogs as feeding suppressants. Food intake in food-deprived animals was tested 30, 60, 120 and 240 min after the i.p injection of the different compounds synthesized at different doses. Here we show results for compounds 2 (A), 7 (B), 12 (C), 19 (D) and 20 (E). […] Results are means±SEM of at least three determinations per group. (*) p<0.05, (**) p<0.01, (***) p<0.001, versus vehicle, ANOVA.
The effects of the different compounds on feeding behaviour were analyzed in male Wistar rats deprived of food for 24 hours, which were accustomed to its manipulation (Navarro, M et al. 1996 J. Neurochem. 67 (1996):1982. Rodriguez de Fonseca, F. et al. Nature 414 (2001):209. Fu, J et al. Nature, 425 (2003):90). For this aim, 48 hours before every assay rats were set out in single cages, the base material (sand or sawdust) was removed and little food containers were set out into the cage for 4 hours. After this initial phase, animals were deprived of food for 24 hours, always with free access to water. After 24 hours of fast, different treatment groups were established (N=8-10 every group) and different doses of the sulfamide corresponding to each experimental session were administrated i.p. in their vehicle solution in a volume of 1 mL/kg, as well as a control group only treated with the vehicle: • 1) Group treated with a 0.03 mg/kg dose of the sulfamide in vehicle solution. • 2) Group treated with a […] dose of the sulfamide in vehicle. • 3) Group with a 3 mg/kg dose of the corresponding sulfamide in vehicle. • 4) Control group treated with the vehicle tween-80 at 5% in physiological serum.
15 minutes after the administration, the containers with a known food amount (normally 30-40 g) and a bottle of fresh water were placed. These containers were weighted 30, 60, 120 and 240 minutes after their presentation, so that the food ingested by each animal was controlled.

For data set [2] the following is noted: cited from earlier work.
Data set [3] can be described thus: Subchronic treatment in genetically obese Zucker rats. In kind it is in vivo. As to conditions: 11 days, 1 mg/kg i.p. daily. The source says: (§1) FIG. 4: Effects of chronic treatment with 7 (N-octadecyl-N′-propylsulfamide) on body weight gain and plasma triglycerides. […] Results are means±SEM of at least three determinations per group. (*) p<0.05, versus vehicle, ANOVA.
To further explore the anti-obesity properties of this compound, we used an additional animal model of obesity.

Data set [4] in a line: Food intake studies: chronic treatment, body weight and plasma triglycerides. Format: in vivo, male Wistar rats. The procedure: as §1
A chronic treatment with the compounds was carried out using male Wistar rats which were accustomed to its manipulation.
For this aim, rats were set out in single cages keeping the base material (sand or sawdust). After an adaptation phase to the conditions of the husbandry where the assay was carried out, three different groups (N=8 every group) were established according to the received treatment: • 1) Group treated with example 6 in its vehicle solution with a 1 mg/kg dose. • 2) Group treated with tween-80 vehicle at 5% in physiological serum. • 3) Control group treated with physiological serum.
The total duration of the experiment was eight days, with two i.p. daily administrations (injected volume of 1 mL/kg) of the different solutions with an interval of 12 hours between both injections. Everyday and previously to the administration at 8:00, each animal was weighted. During the total time of the assay, the single weight of each animal and the biochemical parameters in serum were daily controlled.

The mark [5] stands for this setting: 8 days, 1 mg/kg i.p., normal rats, vs vehicle, 1 mg/kg.

For orientation: melting point means the temperature, or range, at which the solid turns liquid. Consider `CCCCCCCC/C=C\CCCCCCCCNS(N)(=O)=O` [Compound 1, N-(cis-9-octadecenyl)sulfamide], for which the melting point fell in the range of 68 to 70 °C.
Still for that read-out and setting: the value for `CCCCCCCCCCCCCCNS(=O)(=O)NCCC` [Compound 9, N-propyl-N′-tetradecylsulfamide] was 105 to 107 °C.
Regarding `Cc1cccc(Nc2cc(Cl)nc(SCC(=O)O)n2)c1C` [WY14643, reference compound], the “induction of the basal level of PPARα on the PPRE (relative luciferase activity)” value (“induction … (relative luciferase activity)” for short) at human PPARα is reported as about 6 times.
The compound `CCCCCCCCCCCCCCCCCCNS(N)(=O)=O` [Compound 2, N-octadecylsulfamide] had a melting point of 105 to 107 °C. In addition, at human PPARα, the “induction of luciferase activity with overexpression of TIF2” value is listed as “did not provide significantly higher induction”, the “induction … (relative luciferase activity)” value is listed as “did not provide induction” and the “activation of PPARα (receptor-mediated transcription)” value (“activation of PPARα” for short) is on record as “did not activate PPAR receptor-mediated transcription; also recorded: does not activate PPARα”. In data set [1], the “food intake / feeding behaviour” value is “clearly reduced food intake; also recorded: reduces feeding behaviour”.
On to `CCCCCCCCCCCCCCNS(N)(=O)=O` [Compound 4, N-tetradecylsulfamide], for which the melting point was in the range of 99 to 101 °C.
In the case of `CCCCCCCC/C=C\CCCCCCCC(=O)NCCO` [OEA], on human PPARα, the “induction … (relative luciferase activity)” value is listed as about 6 times. Also, the “dose at which hypolipemiant effects are present” value in data set [2] (described in the literature) was “greater than 5 mg/kg”. In addition, in data set [2] (through activation of the nuclear receptor PPARα), the “food intake (literature finding)” value is “decrease food intake”.
Consider `CCCNS(=O)(=O)NC12CC3CC(CC(C3)C1)C2` [Compound 12, N-propyl-N′-adamantylsulfamide], for which, at human PPARα, the “induction of luciferase activity with overexpression of TIF2” value is on record as “did not provide significantly higher induction”, the “induction … (relative luciferase activity)” value was “did not provide induction” and the “activation of PPARα” value is “neither activates PPARα”. Further, the “food intake / feeding behaviour” value in data set [1] is recorded as “nor suppress food intake”.
`CCCCCCCC/C=C\CCCCCCCCNS(=O)(=O)NCCC` came in with a melting point of 82 to 83 °C.
As to `CCCCCCCCCCCCCCCCNS(=O)(=O)NCCC` [Compound 8, N-hexadecyl-N′-propylsulfamide], the melting point lay in the range of 108 to 110 °C.
Same read-out and setting: the value for `CCCCCCCCCCCCCCCCNS(N)(=O)=O` [Compound 3, N-hexadecylsulfamide] was 102 to 104 °C.
Take `CCCCCCCCCCCCCCCCCCNS(=O)(=O)NCCC` [Compound 7, N-octadecyl-N′-propylsulfamide]: the melting point fell in the range of 110 to 112 °C. Further, on human PPARα, the “induction … (relative luciferase activity)” value is listed as about 6 times and the “activation of PPARα” value is recorded as “potent activator of PPARα”. For the same compound, in data set [1], the “food intake / feeding behaviour” value is on record as “potent feeding suppressant”. For the same compound, the food intake entry in data set [3] is recorded as “reduced”. Moreover, in data set [3] (1 mg/kg), the “body weight gain (cumulative relative weight gain)” value is reported as “reduced body weight gain; also recorded: reduces cumulative relative weight gain”. For the same compound, in data set [4] (setting [5]), the body weight entry is given as “reduces body weight” and the plasma triglycerides result is “marked reduction in plasma triglycerides; also recorded: reduces”. In data set [4] (i.p.), this compound showed an active dose of 1 mg/kg.
